# According to article PMC5108082, “Pharmacokinetics, toxicity, and cytochrome P450 modulatory activity of plumbagin” (BMC Pharmacology & Toxicology, 2016):
# “Also recorded” adds a separate entry of the source.
# Key:
# CYP1A2 = CYP1A2 activity (phenacetin O-deethylation) in liver microsomes of treated mice; format: in vivo, mouse; settings: for modulation of CYP1A2 activity (paracetamol produced): mice, 25, 12.5, 6.25 mg/kg daily oral for 28 days vs control
# Description: Mice were divided into four groups (3 male mice each). Mice in the treated groups were fed with plumbagin at a daily oral dose of 25, 12.5, or 6.25 mg/kg body weight (1 mL) for 28 days. The control group received a daily oral dose (1 mL) of 20 % Tween-80 for 28 days. At the end of the experiment period, all animals were sacrificed under ether anesthesia and livers were removed for investigation of the modulatory effect of plumbagin on hepatic CYP1A2 and CYP3A11.
# The liver samples were rinsed with ice-cold, 0.9 %NaCl, homogenized in 50 mM sodium phosphate buffer (pH 7.4) containing 0.1 mM EDTA, and centrifuged at 9000 × g for 20 min. The supernatant was ultracentrifuged at 105,000 × g for 60 min, and the resulting microsomal pellets were suspended with ice cold 1.15 % KCl solution and ultracentrifuged at 105,000 × g for 60 min. The pellets were homogenized with 50 mM potassium phosphate (pH 7.4) containing 0.1 mM EDTA and 10 % glycerol. Protein concentrations were determined by Bradford protein assay and the suspended microsomes were aliquoted and stored at −80 °C until use.
# Phenacetin O-deethylation and nifedipine oxidation were used as selective markers for CYP1A2 and CYP3A11 activities, respectively. The substrate concentration equivalent to the apparent Km (Michaelis-Menten constant) of each individual CYP450 was used in the experiment. Final concentration of organic solvent in the incubation mixture was less than 1 %. The incubation conditions for determination enzyme activity to both CYP450 isoforms were according to the previously described methods.
# The incubation mixture of 500 μL containing the selective substrate (20 μM phenacetin and 40 μm nifedipine for CYP1A2 and CYP3A11, respectively), mice liver microsomes (in 100 mM phosphate buffer pH 7.4) was pre-incubated at 37 °C for 5 min in a shaking water bath. […] Concentrations of paracetamol (metabolite of CYP1A2) and oxidized nifedipine (metabolite of CYP3A11) in the incubation mixtures were determined using HPLC with UV detection. […]
# [1] = rat, in vivo, cited from earlier work
structure (smiles),measurement,setting,value
"CC1=CC(=O)c2c(O)cccc2C1=O [plumbagin, 5-hydroxy-2-methyl-1,4-naphthoquinone]",modulation of CYP1A2 activity (paracetamol produced),CYP1A2,no significant change; also recorded: not found to induce or inhibit
same,modulation of CYP1A2 activity (paracetamol produced),CYP1A2; listed as Plumbagin,did not significantly modulate
same,trend of CYP1A2 activity,CYP1A2; particularly at the lowest dose level of 6.25 mg/kg body weight,tended to be reduced
same,oral bioavailability,[1]; po,39%
same,"elimination half-life (t1/2), mean",[1],17 h
same,"mean residence time (MRT), mean",[1],22 h
same,time to reach maximum blood concentration (tmax),[1],2.5 h
